Measurements as given in publication PMC6803074 (Experimental hematology, 2019).

How the values were obtained:
Assay in all cases: cell proliferation assay
Assay type in all cases: cell-based
BCR-ABL1 [1] = details: BCR-ABL1-positive cells; proliferation read-out; stated gain
BCR-ABL1 [2] = details: BCR-ABL1-positive cells; proliferation read-out
BCR-ABL1 [3] = details: BCR-ABL1-positive cells; proliferation read-out; stated gain; remark: listed apart in the source
BCR-ABL1 [4] = details: BCR-ABL1-positive cells; proliferation read-out; stated gain; remark: listed apart in the source

Cc1ccc(C(=O)NNC(=O)c2c(C)cccc2Cl)cc1C#Cc1cnc2ccccc2c1 [K0706]
IC50 (BCR-ABL1 [1]): 1967 nM
IC50 (BCR-ABL1 [2]): 7 nM
IC50 (BCR-ABL1 [3]): 154 nM
IC50 (BCR-ABL1 [4]): 165 nM
